For orientation: Ki means a measure of affinity in units of concentration, obtained from inhibition or displacement. For orientation: EC50 means the concentration giving half of the maximal effect.

Structures can show the parent of a compound that is named as a salt.

Assay [1] concerns the target human dopamine D2Long (D2L) receptors (Homo sapiens, UniProt P14416).
Assay [2] deals with T1, human dopamine D1 receptor (Homo sapiens, UniProt P21728).
T1 construct: A 1.4 Kb Hind III to Xho I fragment was subcloned into the vector pMMLV; expressed in transfected cells; host or cells: CHO cells, clone CHO-D1M#9 (plasmid pHD1MMLV), membranes
Briefly: [3H]-SCH-23390 binding to cloned human dopamine D1 receptors (CHO cell membranes). As to conditions: competitive binding, [3H]-SCH-23390, cloned human D1 in CHO membranes; read-out: D1 affinity Ki.

The target of assay [3] is T2, D1 receptor (Homo sapiens, UniProt P21728).
T2 construct: expressed in transfected cells; host or cells: D1 transfected CHO cell line
Briefly: D1 Activation Adenylyl Cyclase Assay (cAMP FlashPlate, D1 transfected CHO cell line). In kind it is cell-based. Conditions: agonist activity at the D1 receptor, adenylate cyclase assay, D1 transfected CHO cell line; read-out: D1 EC50. In a few lines: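 D1-transfected CHO cells (50,000/well) were exposed to compound 1/10 serial dilutions for 8 min at RT; cAMP measured by competitive 125I-cAMP FlashPlate against a standard curve. Response normalised between basal and saturating D1 agonist; EC50 at half-maximal stimulation, plateau reported as % maximal dopamine stimulation.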

T2 sequence (P21728 whole entry): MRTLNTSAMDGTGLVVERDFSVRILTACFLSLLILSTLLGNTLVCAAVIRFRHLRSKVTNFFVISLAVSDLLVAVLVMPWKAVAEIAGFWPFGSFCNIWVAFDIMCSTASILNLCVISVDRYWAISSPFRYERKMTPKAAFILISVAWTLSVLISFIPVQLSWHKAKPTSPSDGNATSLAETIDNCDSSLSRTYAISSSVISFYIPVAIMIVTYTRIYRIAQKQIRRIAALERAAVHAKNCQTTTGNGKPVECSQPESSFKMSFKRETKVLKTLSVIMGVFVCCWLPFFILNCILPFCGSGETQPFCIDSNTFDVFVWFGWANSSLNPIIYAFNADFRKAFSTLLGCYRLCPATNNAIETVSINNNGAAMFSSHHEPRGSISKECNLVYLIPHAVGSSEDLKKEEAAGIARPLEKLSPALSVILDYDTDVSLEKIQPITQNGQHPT
T1 sequence (P21728 whole entry, the tested form may be a part): as the sequence (P21728 whole entry) above
Chain of human dopamine D2Long (D2L) receptors (P14416 whole entry): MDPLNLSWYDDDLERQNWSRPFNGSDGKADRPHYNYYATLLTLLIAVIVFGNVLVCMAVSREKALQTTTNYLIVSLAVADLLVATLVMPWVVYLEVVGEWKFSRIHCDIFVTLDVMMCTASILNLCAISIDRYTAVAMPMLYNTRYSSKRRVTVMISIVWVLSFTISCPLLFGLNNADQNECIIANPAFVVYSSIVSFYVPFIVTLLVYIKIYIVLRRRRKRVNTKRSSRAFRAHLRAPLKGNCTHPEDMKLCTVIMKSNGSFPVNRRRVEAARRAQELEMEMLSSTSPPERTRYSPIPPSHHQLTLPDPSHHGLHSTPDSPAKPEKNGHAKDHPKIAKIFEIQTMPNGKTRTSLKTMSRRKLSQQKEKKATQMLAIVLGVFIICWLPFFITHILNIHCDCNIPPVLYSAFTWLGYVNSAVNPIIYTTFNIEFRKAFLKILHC

With `Cc1ccc2c(c1O)C[C@@H](C1CCN(CCC(C)NC(=O)c3cc4ccccc4s3)CC1)O[C@H]2CN` (stereo partly drawn) [Example 20, Benzo[b]thiophene-2-carboxylic acid {3-[4-((1R,3S)-1-aminomethyl-5-hydroxy-6-methyl-isochroman-3-yl)-piperidin-1-yl]-1-methyl-propyl}-amide dihydrochloride], the Ki in assay [1] came to 0.265 µM; in assay [2], 0.0524 µM. The EC50 in assay [3] is 0.061 µM.

`COc1cccc(NC(=O)N2CCC([C@@H]3Cc4c(ccc(C)c4O)[C@H](CN)O3)CC2)c1` [Example 125, 4-((1R,3S)-1-Aminomethyl-5-hydroxy-6-methyl-isochroman-3-yl)-piperidine-1-carboxylic acid (3-methoxy-phenyl)-amide]: the Ki in assay [1] is ≥ 10 µM; in assay [2], 0.079 µM. For the same molecule, in assay [3], the EC50 worked out at 0.06 µM.

As for `Cc1ccc2c(c1O)C[C@@H](C1CCN(CCc3ccccc3)CC1)O[C@H]2CN` [Example 106, (1R,3S)-1-Aminomethyl-6-methyl-3-(1-phenethyl-piperidin-4-yl)-isochroman-5-ol dihydrobromide], the Ki in assay [1] came out at 0.278 µM; in assay [2] it was 0.045 µM. For the same molecule, the EC50 in assay [3] was determined as 0.029 µM.

For `Cc1ccc2c(c1O)C[C@@H](C1CCN(Cc3ccnc4ccccc34)CC1)O[C@H]2CN` [Example 57, (1R,3S)-1-Aminomethyl-6-methyl-3-(1-quinolin-4-ylmethyl-piperidin-4-yl)-isochroman-5-ol dihydrochloride], the Ki in assay [1] was ≥ 10 µM; in assay [2], 0.0596 µM. Further, the EC50 in assay [3] is 0.012 µM.

For `Cc1ccc2c(c1O)C[C@@H](C1CCN(C(=O)N(C)c3ccccc3)CC1)O[C@H]2CN` [Example 131, 4-((1R,3S)-1-Aminomethyl-5-hydroxy-6-methyl-isochroman-3-yl)-piperidine-1-carboxylic acid methyl-phenyl-amide hydrochloride], the Ki in assay [1] was ≥ 10 µM; in assay [2] it was 0.051 µM. Moreover, in assay [3], the EC50 was determined as 0.0064 µM.

As to `Cc1ccc2c(c1O)C[C@@H](C1CCN(Cc3ccc4ccccc4n3)CC1)O[C@H]2CN` [Example 55, (1R,3S)-1-Aminomethyl-6-methyl-3-(1-quinolin-2-ylmethyl-piperidin-4-yl)-isochroman-5-ol dihydrochloride], the Ki in assay [1] is 0.449 µM; in assay [2] it was 0.0536 µM. The EC50 in assay [3] stood at 0.016 µM.

Consider `Cc1ccc2c(c1O)C[C@@H](C1CCN(S(=O)(=O)N3CCc4ccccc4C3)CC1)O[C@H]2CN` [Example 167, (1R,3S)-1-Aminomethyl-3-[1-(3,4-dihydro-1H-isoquinoline-2-sulfonyl)-piperidin-yl]-6-methyl-isochroman-5-ol hydrochloride], for which the Ki in assay [1] was found to be 0.528 µM; in assay [2], 0.074 µM. The EC50 in assay [3] stood at 0.077 µM.

The record behind these values is patent publication US7919508B2, “3-piperidinylisochroman-5-ols as dopamine agonists” (Aventis Pharmaceuticals Inc., priority 2004, dated 2011).
